Laboratory results reported in US20230031406A1, “COMPOUNDS AND COMPOSITIONS FOR TREATING CONDITIONS ASSOCIATED WITH NLRP ACTIVITY” (Novartis AG, priority 2018, published 2023).
Read-outs that look alike come from different tables or passages of the source. One block for each compound: values may come before it.

System: PMA-differentiated THP-1 cells
Assay: IL-1β production in PMA-differentiated THP-1 cells stimulated with gramicidin (hTHP-1 assay containing 2% fetal bovine serum; Procedures 1 and 2)
Format: cell-based, human
Conditions: 2% fetal bovine serum
Summary of the method: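 IL-1β release from PMA-differentiated THP-1 macrophage-like cells was triggered by 5 μM gramicidin for 2 h after 1 h compound exposure, then measured by HTRF.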

[1] = Homo sapiens, THP-1, Table B2, class symbols, read-out: hTHP-1 IC50
[2] = Table B2, class symbols, read-out: hTHP-1 IC50
[3] = Homo sapiens, THP-1, Table B3, hTHP-1 assay, class symbols, read-out: IC50
[4] = Table B1, class symbols, read-out: Average IC50 of compounds in hTHP-1 assay: hTHP-1 IC50

Structure (SMILES): CC(C)(O)c1csc(S(N)(=O)=NC(=O)Nc2cc(C3CC3)nc3c2CCC3)c1 (single isomer, unassigned) [Compound 176b, (R) or (S)-N′-((2-cyclopropyl-6,7-dihydro-5H-cyclopenta[b]pyridin-4-yl)carbamoyl)-4-(2-hydroxypropan-2-yl)thiophene-2-sulfonimidamide]
IC50 [1]: 1000 to 5000 nM

Structure (SMILES): CC(C)c1ncc(F)c(C(C)C)c1NC(=O)N=S(N)(=O)c1sc(C(C)(C)O)cc1F (centres unmarked) [Compound 106, 3-Fluoro-N′-((5-fluoro-2,4-diisopropylpyridin-3-yl)carbamoyl)-5-(2-hydroxypropan-2-yl)thiophene-2-sulfonimidamide]
IC50 (Homo sapiens, THP-1, Table B1, class symbols, read-out: Average IC50 of compounds in hTHP-1 assay: hTHP-1 IC50): 40 to 200 nM

Structure (SMILES): CC1CCc2c1nc1c(c2NC(=O)N=S(N)(=O)c2cc(C(C)(C)O)cs2)CCC1C (single isomer, unassigned) [Compound 131g, (R,R,R) or (R,S,S)-N′-((3,5-dimethyl-1,2,3,5,6,7-hexa-hydrodicyclo-penta[b,e]pyridin-8-yl)carbamoyl)-4-(2-hydroxypropan-2-yl)thio-phene-2-sulfonimidamide]
IC50 [4]: 200 to 1000 nM

Structure (SMILES): CC1(C)CCc2c1nc1c(c2NC(=O)N=S(N)(=O)c2cnn3c2OCCC3)CCC1 (single isomer, unassigned) [Compound 304b, (R) or (S)-N′-((3,3-dimethyl-1,2,3,5,6,7-hexahydrodicyclopenta [b,e]pyridin-8-yl)carbamoyl)-6,7-dihydro-5H-pyrazolo[5,1-b][1,3]oxazine-3-sulfonimidamide]
IC50 [1]: 1000 to 5000 nM

Structure (SMILES): Cc1nc(C)c(C)c(NC(=O)N=S(N)(=O)c2cnc(C(C)(C)O)s2)c1C (single isomer, unassigned) [Compound 133a, (R) or (S)-2-(2-hydroxypropan-2-yl)-N′-((2,3,5,6-tetramethylpyridin-4-yl)carbamoyl)thiazole-5-sulfonimidamide]
IC50 (Homo sapiens, THP-1, Table B1, numeric bounds, read-out: Average IC50 of compounds in hTHP-1 assay: hTHP-1 IC50): > 30000 nM

Structure (SMILES): CC1(C)CCc2c1nc1c(c2NC(=O)N=S(N)(=O)c2ccn(C(F)F)n2)CCC1 (single isomer, unassigned) [Compound 122a, (R) or (S)-1-(difluoromethyl)-N′-((3,3-dimethyl-1,2,3,5,6,7-hexahydrodicyclo-penta[b,e]pyridin-8-yl)carbamoyl)-1H-pyrazole-3-sulfonimidamide]
IC50 [4]: 40 to 200 nM

Structure (SMILES): COCc1nc(C(C)(C)O)sc1S(N)(=O)=NC(=O)Nc1c2c(nc3c1CCC3(C)C)CCC2 (single isomer, unassigned) [Compound 170a]
IC50 [2]: 200 to 1000 nM

Structure (SMILES): CC(C)(O)c1ncc(S(N)(=O)=NC(=O)Nc2c3c(nc4c2CCC42CC2)CCC3)s1 (single isomer, unassigned) [Compound 136a, (S) or (R)-2-(2-hydroxy-propan-2-yl)-N′-((1′,5′,6′,7′-tetrahydro-2′H-spiro[cyclopropane-1,3′-dicyclopenta[b,e]pyridin]-8′-yl)carbamoyl)thiazole-5-sulfonimidamide]
IC50 [4]: 1000 to 5000 nM

Further lines, results first:

IC50 [2]: 1000 to 5000 nM
Structure (SMILES): CCc1nc2c(c(NC(=O)N=S(N)(=O)c3cc(C(C)(C)O)cs3)c1C1CC1)CCC2 (single isomer, unassigned) [Compound 654a, (S) or (R)-N′-((3-cyclopropyl-2-ethyl-6,7-dihydro-5H-cyclopenta[b]pyridin-4-yl)carbamoyl)-4-(2-hydroxypropan-2-yl)thiophene-2-sulfonimidamide]

IC50 [3]: 1000 to 5000 nM
Structure (SMILES): CCn1nc(S(N)(=O)=NC(=O)Nc2c3c(nc4c2CCC4(C)C)CCC3)cc1CO (centres unmarked) [Example 591, N′-((3,3-dimethyl-1,2,3,5,6,7-hexahydrodicyclopenta[b,e]pyridin-8-yl)carbamoyl)-1-ethyl-5-(hydroxymethyl)-1H-pyrazole-3-sulfonimidamide]

IC50 [2]: 1000 to 5000 nM
Structure (SMILES): CCc1c(C(F)(F)F)nc2c(c1NC(=O)N=S(N)(=O)c1cc(C(C)(C)O)cs1)CCC2 (single isomer, unassigned) [Compound 698a, (S) or (R)-N′-((3-ethyl-2-(trifluoromethyl)-6,7-dihydro-5H-cyclopenta[b]pyridin-4-yl)carbamoyl)-4-(2-hydroxypropan-2-yl)thiophene-2-sulfonimidamide]

IC50 [1]: 1000 to 5000 nM
Structure (SMILES): Cc1c(C(F)F)nc2c(c1NC(=O)N=S(N)(=O)c1cnc(C(C)(C)O)s1)CCC2 (single isomer, unassigned) [Compound 647a, (R) or (S)-N′-((2-(difluoromethyl)-3-methyl-6,7-dihydro-5H-cyclopenta[b]pyridin-4-yl)carbamoyl)-2-(2-hydroxypropan-2-yl)thiazole-5-sulfonimidamide]

IC50 [3]: 40 to 200 nM
Structure (SMILES): C[C@](O)(CO)c1cc(F)c(S(N)(=O)=NC(=O)Nc2c3c(nc4c2CCC42CC2)CCC3)s1 (stereo partly drawn) [Example 608, 5-((S)-1,2-dihydroxypropan-2-yl)-3-fluoro-N′-((1′,5′,6′,7′-tetrahydro-2′H-spiro[cyclopropane-1,3′-dicyclopenta[b,e]pyridin]-8′-yl)carbamoyl)thiophene-2-sulfonimidamide]

IC50 [1]: 5000 to 30000 nM
Structure (SMILES): CC1CCc2c1nc1c(c2NC(=O)N=S(N)(=O)c2cn(C(C)C)cn2)CCC1 (single isomer, unassigned) [Compound 660d, (R, R) or (S, R) or (R, S) or (S, S)-1-isopropyl-N′-((3-methyl-1,2,3,5,6,7-hexahydrodicyclopenta [b,e]pyridin-8-yl)carbamoyl)-1H-imidazole-4-sulfonimidamide]

IC50 [1]: 1000 to 5000 nM
Structure (SMILES): Cc1c(C(F)(F)F)nc2c(c1NC(=O)N=S(N)(=O)c1ccn(C(F)F)n1)CCC2 (centres unmarked) [Compound 621, 1-(Difluoromethyl)-N′-((3-methyl-2-(trifluoromethyl)-6,7-dihydro-5H-cyclopenta[b]pyridin-4-yl)carbamoyl)-1H-pyrazole-3-sulfonimidamide]

IC50 (Homo sapiens, THP-1, Table B3, hTHP-1 assay, numeric values, read-out: IC50): ~30000 nM
Structure (SMILES): Cc1c(C(F)(F)F)nc2c(c1NC(=O)N=S(N)(=O)c1cc(CO)n(C(C)C)n1)CCC2 (single isomer, unassigned) [Example 720, (R) or (S)-5-(hydroxymethyl)-1-isopropyl-N′-((3-methyl-2-(trifluoromethyl)-6,7-dihydro-5H-cyclopenta[b]pyridin-4-yl)carbamoyl)-1H-pyrazole-3-sulfonimidamide]

IC50 [3]: 1000 to 5000 nM
Structure (SMILES): CCn1nc(S(N)(=O)=NC(=O)Nc2c3c(nc4c2CCC42CC2)CCC3)cc1CO (centres unmarked) [Example 589, 1-Ethyl-5-(hydroxymethyl)-N′-((1′,5′,6′,7′-tetrahydro-2′H-spiro[cyclopropane-1,3′-dicyclopenta[b,e]pyridin]-8′-yl)carbamoyl)-1H-pyrazole-3-sulfonimidamide]

IC50 [3]: 1000 to 5000 nM
Structure (SMILES): Cc1c(C(F)(F)F)nc2c(c1NC(=O)N=S(N)(=O)c1cc(CO)n(C(C)C)n1)CCC2 (single isomer, unassigned) [Example 719, (S) or (R)-5-(hydroxymethyl)-1-isopropyl-N′-((3-methyl-2-(trifluoromethyl)-6,7-dihydro-5H-cyclopenta[b]pyridin-4-yl)carbamoyl)-1H-pyrazole-3-sulfonimidamide]

IC50 (Table B3, hTHP-1 assay, class symbols, read-out: IC50): 1000 to 5000 nM
Structure (SMILES): CCn1cc(F)c(S(N)(=O)=NC(=O)Nc2c(C)c(C3CC3)nc3c2CCC3)n1 (single isomer, unassigned) [Example 714, (S) or (R)-N′-((2-cyclopropyl-3-methyl-6,7-dihydro-5H-cyclopenta[b]pyridin-4-yl)carbamoyl)-1-ethyl-4-fluoro-1H-pyrazole-3-sulfonimidamide]

IC50 [2]: 1000 to 5000 nM
Structure (SMILES): CCC1CCc2c1nc1c(c2NC(=O)N=S(N)(=O)c2sc(C(C)(C)O)cc2F)CCC1 (centres unmarked) [Compound 671, N′-((3-ethyl-1,2,3,5,6,7-hexahydrodicyclopenta[b,e]pyridin-8-yl)carbamoyl)-3-fluoro-5-(2-hydroxypropan-2-yl)thiophene-2-sulfonimidamide]
